Laboratory results taken from patent publication US12404232B2, “Compounds and compositions for intracellular delivery of therapeutic agents” (ModernaTX, Inc., priority 2015, dated 2025).

Columns and labels:
[1] = Particle size and polydispersity index of nanoparticle compositions (Zetasizer Nano ZS); format: physicochemical; details: for PDI: nanoparticle composition 50:10:38.5:1.5 mol % (Table 1A); for Size (nm): nanoparticle composition lipid:DSPC:cholesterol:PEG-DMG 50:10:38.5:1.5 mol %, mRNA encoding Luc or hEPO (Table 1A)
Method in brief: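 Formulations at 50:10:38.5:1.5 mol % (ionizable lipid, DSPC, cholesterol, PEG-DMG) encapsulating Luc or hEPO mRNA were measured in 1×PBS on a Zetasizer Nano ZS to give size and polydispersity index.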

mice [2] = test: Luc expression (total flux) after intramuscular administration; format: in vivo; details: i.m., Luc, 6 h
rat = test: Clinical chemistry and hematology in rat after intravenous administration; format: in vivo; set-up: unit not given here; details: 2 mpk, 48 h post dose
Method: Sample formulations of nanoparticle compositions including different lipids were administered intravenously to rat at a dose of 2 mpk. The expression of various clinical markers was evaluated at 48 h post dose and compared to that induced by administration of MC3 formulations or phosphate buffered saline (PBS).
(§1) Table 19 summarizes the hEPO expression, IP-10 induction, liver and spleen levels, and alanine aminotransferase (ALT) and aspartate aminotransferase (AST) measured upon intravenous administration of formulations including Compounds 48, 49, and 50 to rat at 0.2 and 2 mpk and hEPO mRNA. hEPO concentrations were measured 6 hours after administration, while cytokine induction and liver and spleen levels were measured 48 hours after administration. hEPO and IP-10 concentrations are presented in pg/ml, while liver levels are provided in ng/g. ALT and AST levels are presented in international units.

mice [3] = test: Luc expression (total flux) after intramuscular administration; format: in vivo; details: 6 hours after intramuscular administration, Luc mRNA and H10 mRNA
rats [4] = test: Residual lipid levels in liver and spleen of rats (UPLC-MS quantification); format: in vivo, rat; details: rats, 2 mpk, 48 h; assuming 300 g rat and 15 g liver
Method: At 48 h liver tissue was harvested for lipid quantification. To pre-weighed tissues, Milli-Q water was added (900 μL water per 100 mg tissue). Tissues were homogenized using an Omni probe homogenizer until uniform. 50 μL of samples and matrix calibration standards were aliquoted into a 96-well plate. 50 μL of blank matrix for matrix blanks and control blanks were aliquoted. 400 μL IS spiking solution were manually added to all samples except matrix blanks. 400 μL of 50:50 ACN:IPA were manually added to matrix blanks. The plate was covered and the samples vortexed and centrifuged for 5 minutes at >3000 rpm. 200 μL of the samples were transferred into a clean 96-well plate for analysis. Samples were analyzed on a Waters Acquity UPLC using a Higgins Analytical Clipeus C8 column ([…], 30×2.1 mm) and a gradient of either 70-95% or 60-95% (Mobile Phase A: 5 mM ammonium formate in 50:50:1 H2O:MeOH:formic acid; Mobile Phase B: 5 mM ammonium formate in 100:1 MeOH:formic acid) over 1.3 min at 1.2 mL/min (column temperature 55° C.). Detection was based on electrospray ionization (ESI) in positive mode using a Sciex API5500 Mass Spectrometer.
The expression of hEPO in rats intravenously administered a nanoparticle composition at a dose of 0.2 mpk or 2.0 mpk was measured at 6 hours. Table 16 summarize the ratio of hEPO expression levels using various nanoparticle compositions as compared to the hEPO expression level using MC3 formulation and the lipid levels in the liver measured 48 hours after administration, as described above. Tables 17 and 18 summarize the lipid levels in the liver and spleen measured 48 hours after administration of Compounds 28, 33, 53, and 54. Liver and spleen levels represent the average values calculated for 3 rats in each group. As is shown in Tables 17 and 18, less than 10% of Compounds 28, 33, 53, and 54 remained in the liver after 48 hours, while greater than 60% of MC3 remained.
as §1
The expression of hEPO induced by intravenous administration to rats of nanoparticle compositions at various doses was measured at 2, 4, 6, 8, 24, and 48 hour time points. FIGS. 3-6 respectively summarize the hEPO expression measured upon intravenous administration of formulations including Compounds 26, 18, 25, and MC3 to rat at various doses. The lipid levels of Compound 26 in the liver after 48 hours were about 19%.
The expression of hEPO and lipid levels in the liver and spleen in rats intravenously administered a nanoparticle composition at a dose of 0.2 mpk was measured at various timepoints. Compounds 18 and 25 were selected for comparison with MC3. Lipids were formulated according to the standard MC3 formulation described above. Rats were administered intravenously a single 0.2 mpk dose and expression monitored at 0.25, 0.5, 1, 2, 4, 8, 24, and 48 hours after administration.

mice [5] = test: Cytokine induction (IL-6, IP-10) in mice after intravenous administration; format: in vivo; set-up: IL-6 / IP-10: unit not given here; details: 0.5 mpk, 6 hours
Method in brief: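 Nanoparticle compositions given intravenously to mice at 0.5 mpk; serum cytokine concentrations measured at 6 hours, with MC3 formulation and PBS as comparators.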

rats [6] = test: Cytokine induction (IP-10) in rats after intravenous administration; format: in vivo; details: rat, 6 hours after administration of hEPO nanoparticle compositions, 2.0 mpk
Method: The expression of hEPO and cytokine induction in rats intravenously administered a nanoparticle composition at a dose of 2.0 mpk was measured at 6 h.
as §1

[7] = Encapsulation of RNA by the nanoparticle composition (QUANT-IT RIBOGREEN RNA assay); format: physicochemical; details: nanoparticle composition 50:10:38.5:1.5 mol % (Table 1A)
From the text: The efficiency of encapsulation of a therapeutic and/or prophylactic describes the amount of therapeutic and/or prophylactic that is encapsulated or otherwise associated with a nanoparticle composition after preparation, relative to the initial amount provided. The encapsulation efficiency is desirably high (e.g., close to 100%). The encapsulation efficiency may be measured, for example, by comparing the amount of therapeutic and/or prophylactic in a solution containing the nanoparticle composition before and after breaking up the nanoparticle composition with one or more organic solvents or detergents. Fluorescence may be used to measure the amount of free therapeutic and/or prophylactic (e.g., RNA) in a solution. For the nanoparticle compositions described herein, the encapsulation efficiency of a therapeutic and/or prophylactic may be at least 50%, for example 50%, 55%, 60%, 65%, 70%, 75%, 80%, 85%, 90%, 91%, 92%, 93%, 94%, 95%, 96%, 97%, 98%, 99%, or 100%. In some embodiments, the encapsulation efficiency may be at least 80%. In certain embodiments, the encapsulation efficiency may be at least 90%.
For nanoparticle compositions including an RNA, a QUANT-IT™ RIBOGREEN® RNA assay (Invitrogen Corporation Carlsbad, CA) can be used to evaluate the encapsulation of an RNA by the nanoparticle composition. The samples are diluted to a concentration of approximately […] in a TE buffer solution (10 mM Tris-HCl, 1 mM EDTA, pH 7.5). 50 μL of the diluted samples are transferred to a polystyrene 96 well plate and either 50 μL of TE buffer or 50 μL of a 2% Triton X-100 solution is added to the wells. The plate is incubated at a temperature of 37° C. for 15 minutes. The RIBOGREEN® reagent is diluted 1:100 in TE buffer, and 100 μL of this solution is added to each well. The fluorescence intensity can be measured using a fluorescence plate reader (Wallac Victor 1420 Multilablel Counter; Perkin Elmer, Waltham, MA) at an excitation wavelength of, for example, about 480 nm and an emission wavelength of, for example, about 520 nm. The fluorescence values of the reagent blank are subtracted from that of each of the samples and the percentage of free RNA is determined by dividing the fluorescence intensity of the intact sample (without addition of Triton X-100) by the fluorescence value of the disrupted sample (caused by the addition of Triton X-100).
Initial studies were performed to compare the delivery efficiency of nanoparticle compositions including various compounds according to Formula (I), (IA), (II), (IIa), (IIb), (IIc), (IId) or (IIe). The cationic lipid MC3 is a current standard in the art. Accordingly, the standard MC3 formulation including about 50 mol % MC3, about 10 mol % DSPC, about 38.5 mol % cholesterol, and about 1.5 mol % PEG-DMG was used as a basis for this study. Nanoparticle compositions including DSPC as a phospholipid, cholesterol as a structural lipid, PEG-DMG as a PEG lipid, an RNA, and a compound according to Formula (I), (IA), (II), (IIa), (IIb), (IIc), (IId) or (IIe) selected from Compounds 1-159, 168-170, and 173-175 were prepared according to or via methods similar to those described in Examples 1 and 2. The ratios of the lipids were 50:10:38.5:1.5 mol % for the lipid according to Formula (I), (IA), (II), (IIa), (IIb), (IIc), (IId) or (IIe):DSPC:cholesterol:PEG-DMG. The RNA used was an mRNA encoding G5 luciferase (Luc) or G5 hEPO. Tables 1A-1B summarize the content and characteristics of the formulations. […]

Row | Compound | PDI [1] | Size (nm) [1] | i.m. Lipid/MC3 0.01 mpk, Luc, 6h (mice [2]) | Alanine aminotransferase (Concentration) (rat) | Aspartate aminotransferase (Concentration) (rat) | Lymphocytes (Concentration) (rat) | Monocytes (Concentration) (rat) | Neutrophils (Concentration) (rat) | Total flux (p/s) 0.001 mpk Dose (mice [3]) | Total flux (p/s) 0.01 mpk Dose (mice [3]) | % Lipid Remaining in liver, 48 h* 2 mpk (rats [4]) | IL-6 (mice [5]) | IP-10 (mice [5]) | IP-10 (rats [6]) | EE (%) [7]
1 | CCCCCCCCCOC(=O)CCCCCCCN(CCCCCCCC(=O)OC(CCCCCCCC)CCCCCCCC)CCCNC(=S)N(C)C [Compound 111, Heptadecan-9-yl 8-((3-(3,3-dimethylthioureido)propyl)(8-(nonyloxy)-8-oxooctyl)amino)octanoate] | 0.14 | 79.3 nm | 4.9 |  |  |  |  |  |  |  |  |  |  |  | 
2 | CCCCCC/C=C\COC(=O)CCCCCCCN(CCO)CCCCCCCC(=O)OC(CCCCCCCC)CCCCCCCC [Compound 24, Heptadecan-9-yl (Z)-8_((2-hydroxyethyl) (8-(non-2-en-1-yloxy)-8-oxooctyl)amino)octanoate] |  |  |  | 51.5 | 90 | 14100 | 1834 | 1790.5 | 3.78E+06 p/s | 3.97E+07 p/s | 0.016% | 163.53 | 1172.93 | 323.5 pg/mL | 
3 | CCCCCCCCCOC(=O)CCCCCCCN(CCCCCCCC(=O)OC(CCCCCCCC)CCCCCCCC)CCCOC(=O)NC [Compound 175, Heptadecan-9-yl 8-((3-((methylcarbamoyl)oxy)propyl)(8-(nonyloxy)-8-oxooctyl)amino)octanoate] | 0.2 | 65.4 nm | 0.1 |  |  |  |  |  |  |  |  |  |  |  | 93.23%
4 | CCCCCCCCCOC(=O)CCCCCCCN(CCCCCCCC(=O)OC(CCCCCCCC)CCCCCCCC)CCCNc1c(N(C)C)c(=O)c1=O [Compound 169, Heptadecan-9-yl 8-((3-((2-(dimethylamino)-3,4-dioxocyclobut-1-en-1-yl)amino)propyl)(8-(nonyloxy)-8-oxooctyl)amino)octanoate] | 0.18 | 75.4 nm | 3.3 |  |  |  |  |  |  |  |  |  |  |  | 
5 | CCCCCCCCCOC(=O)CCCCCCCN(CCCCCCCC(=O)OC(CCCCCCCC)CCCCCCCC)CCCN1C(=O)CNC1=O [Compound 174, Heptadecan-9-yl 8-((3-(2,5-dioxoimidazolidin-1-yl)propyl)(8-(nonyloxy)-8-oxooctyl)amino)octanoate] | 0.12 | 61.4 nm | 0.2 |  |  |  |  |  |  |  |  |  |  |  | 
6 | CCCCCCCCCOC(=O)CCCCCCCN(CCO)CCCCCCCOC(=O)C(CCCCCCCC)CCCCCCCC [Compound 30, 7-((2-Hydroxyethyl)(8-(nonyloxy)-8-oxooctyl)amino)heptyl 2-octyldecanoate] |  |  |  | 56 | 95 | 10408.5 | 877 | 3195 | 2.47E+06 p/s | 3.77E+07 p/s | <0.01% | 152.51 | 1638.77 | 214.5 pg/mL | 
7 | CCCCCCCCCN(CCO)CCCCCCCC(=O)OC(CCCCCCCC)CCCCCCCC [Compound 3, Heptadecan-9-yl 8-((2-hydroxyethyl)(nonyl)amino)octanoate] |  |  |  | 53.5 | 87.5 | 12051 | 2103 | 3388.5 | 3.58E+06 p/s | 4.95E+07 p/s | 14% |  |  | 542 pg/mL | 
